{"source": "patent US9611514B2", "about": "“Method for selection of hDIS3 PIN domain inhibitors and use of hDIS3 PIN domain inhibitors for cancer treatment” (INSTYTUT BIOCHEMII I BIOFIZYKI POLSKIEJ AKADEMII NAUK, priority 2013, dated 2017)", "key": {"[1]": {"molecular_target": "T1, isolated PIN domain of hDIS3 (Homo sapiens, UniProt Q9Y2L1)", "T1 construct": "made in house", "T1 sequence (Q9Y2L1 1-217)": "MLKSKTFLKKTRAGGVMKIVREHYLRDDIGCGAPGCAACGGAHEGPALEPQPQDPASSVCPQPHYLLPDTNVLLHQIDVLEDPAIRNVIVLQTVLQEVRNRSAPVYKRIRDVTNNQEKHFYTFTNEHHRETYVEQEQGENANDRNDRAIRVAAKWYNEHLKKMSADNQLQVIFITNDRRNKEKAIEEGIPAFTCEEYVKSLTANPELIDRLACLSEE", "test": "hDIS3 PIN domain endonucleolytic activity assay (RNA substrate digestion, denaturing PAGE, fluorimaging)", "format": "biochemical", "details": "80 μM concentration; 5′ fluoresceine-labeled ss17-(A)34 substrate; 1 mM manganese", "method": "FIGS. 11A-B. 2-hydroxy-(4H)-isoquinoline-1,3-dione (AClLAHYL) inhibits the endonucleolytic activity of isolated PIN domain of hDIS3. A) SDS-PAGE analysis of the recombinant hDIS3 PIN domain; B) Activity assay. 5′ fluoresceine-labeled ss17-(A)34 substrate was incubated in a buffer containing 1 mM manganese with recombinant hDIS3 PIN domain in the presence or absence of 2-hydroxy-(4H)-isoquinoline-1,3-dione. A control reaction was also performed, which contained the inhibitor but lacked any added protein. Reactions were terminated at the indicated time points, followed by denaturing PAGE and fluorimaging.\nIn vitro enzymatic assays of hDIS3 exoribonucleolytic activity were performed in 10 mM Tris-HCl, pH 8.0; 75 mM NaCl; 1 mM 2-mercaptoethanol, 100 μM MgCl2. Protein concentration was 0.1 μM, while substrate concentration was 0.2 μM or 2 μM for duplex and unstructured RNA molecules, respectively. For gel-based analyses, reactions were performed at 37° C. for the indicated times and then terminated by formamide loading dye Reaction products were resolved in denaturing 20% polyacrylamide, 8 M urea, 1xTBE gels. In the case of TLC-based experiment, samples were collected by mixing aliquots of the reaction mixtures with 1 μl of 0.5 M EDTA and subsequently analysed by running them on PEI-cellulose plates (Schleicher & Schuell) in 0.5 M LiCl/1M formic acid, using non-radioactive UMP as a marker. […]"}, "[2]": {"system": "yeast harboring G833R mutation (dis3-G833R)", "test": "Yeast growth assay, serial dilutions spotted on YPD plates", "format": "cell-based, S. cerevisiae", "details": "1 mM in YPD plates, 30° C., 60 hours", "method": "(§1) FIG. 12. […] Serial dilutions of indicated yeast strains were spotted on YPD plates and YPD plates with 2-hydroxy-(4H)-isoquinoline-1,3-dione (at 1 mM concentration) and incubated at 30° C. for 60 hours.\n(§2) Yeast strains described above were grown in complete YPD medium at 30° C. overnight until OD600 reached 0.2 before spotting serial dilutions onto YPD plates. Cell growth was analyzed after 60 h of incubation at 25° C., 30° C. or 37° C. Analysis of viability for strains harboring mutations in both PIN and RNB domains of Dis3 was carried out by sporulation of ADZY713 and ADZY716 diploid strains, followed by tetrad dissection.\n(§3) Yeast strains harboring G833R or R847K mutations, obtained in Example II were used for growth assays. Serial dilutions of indicated yeast strains were spotted on YPD plates and YPD plates with 2-hydroxy-(4H)-isoquinoline-1,3-dione (at 1 mM concentration) and incubated at 30° C. for 60 hours."}, "[3]": {"system": "yeast harboring R847K mutation (dis3-R847K)", "test": "Yeast growth assay, serial dilutions spotted on YPD plates", "format": "cell-based, S. cerevisiae", "details": "1 mM in YPD plates, 30° C., 60 hours", "method": "as §1, §2, §3"}}, "data": [{"compound": "O=C1Cc2ccccc2C(=O)N1O", "note": "[2-hydroxy-(4H)-isoquinoline-1,3-dione]", "values": [{"measurement": "inhibition of the endonucleolytic activity of human DIS3 PIN domain", "setting": "[1]", "result": "efficiently inhibited"}, {"measurement": "growth inhibition of yeast harboring G833R mutation", "setting": "[2]", "result": "complete growth inhibition"}, {"measurement": "growth inhibition of yeast harboring R847K mutation", "setting": "[3]", "result": "complete growth inhibition"}]}]}
